Experimental data: patent US20260042753A1 (Merck Patent GmbH, priority 2019, published 2026)
pIC50: −log10 of the molar value. Read-outs that look alike come from different tables or passages of the source.

Columns and labels:
c-Kit(V654A) = c-Kit(V654A) (Homo sapiens, UniProt P10721, V654A); assay: c-Kit(V654A) assay; format: biochemical
Summary of the method: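 Radiometric filter-binding read-out: after 3% phosphoric acid stop, peptide-incorporated 33P on filtermat scintillation-counted. Enzyme: human c-Kit V654A, residues 544–end, N-terminal GST fusion.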

[1] = biological target: mutant cKIT (560-576 and V654A) in GIST430/654 cell line (Homo sapiens (Human), UniProt P10721, DEL560-576/V654A); assay: Cellular testing of cKIT mutant inhibitors: phospho-Y307-cKIT Luminex assay in GIST430/654 cells; format: cell-based; conditions: read-out: GIST 430/654 IC50
Sequence of mutant cKIT (560-576 and V654A) in GIST430/654 cell line (P10721 other isoform, or with tags, fused parts or gaps V654A/del 1-25/del 560-576 limits assumed): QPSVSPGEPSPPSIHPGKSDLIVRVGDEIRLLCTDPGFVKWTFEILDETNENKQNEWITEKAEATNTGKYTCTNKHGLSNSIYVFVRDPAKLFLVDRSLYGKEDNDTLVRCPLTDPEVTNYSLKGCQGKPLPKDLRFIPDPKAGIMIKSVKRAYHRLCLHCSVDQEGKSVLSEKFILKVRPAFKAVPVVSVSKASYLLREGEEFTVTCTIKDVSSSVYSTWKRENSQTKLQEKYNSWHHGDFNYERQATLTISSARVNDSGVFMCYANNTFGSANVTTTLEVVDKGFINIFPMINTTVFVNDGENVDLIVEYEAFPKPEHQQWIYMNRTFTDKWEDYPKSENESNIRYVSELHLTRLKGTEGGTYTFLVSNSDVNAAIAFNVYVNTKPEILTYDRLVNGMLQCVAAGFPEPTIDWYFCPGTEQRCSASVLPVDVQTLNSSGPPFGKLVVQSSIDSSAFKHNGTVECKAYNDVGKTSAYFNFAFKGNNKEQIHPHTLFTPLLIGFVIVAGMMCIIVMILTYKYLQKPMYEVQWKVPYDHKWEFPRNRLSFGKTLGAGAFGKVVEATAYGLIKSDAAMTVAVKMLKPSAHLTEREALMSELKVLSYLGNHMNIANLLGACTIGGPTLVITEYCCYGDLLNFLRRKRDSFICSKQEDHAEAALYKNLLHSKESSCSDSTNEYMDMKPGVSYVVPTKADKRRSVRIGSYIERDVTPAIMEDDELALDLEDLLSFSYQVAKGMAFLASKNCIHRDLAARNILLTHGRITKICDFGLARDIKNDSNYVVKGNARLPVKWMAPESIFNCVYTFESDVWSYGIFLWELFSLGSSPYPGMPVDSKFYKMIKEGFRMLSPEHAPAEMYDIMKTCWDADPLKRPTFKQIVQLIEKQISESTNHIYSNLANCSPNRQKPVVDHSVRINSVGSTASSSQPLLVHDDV
Summary of the method: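 Autophosphorylation of mutant cKIT at Y307 was quantified by a Luminex bead sandwich assay (total-cKIT capture, phosphospecific detection) after 45 min compound exposure in GIST430/654 cells, cultured in medium containing 100 nM imatinib. Signals were normalised to solvent (0.3% DMSO) controls and dose-response curves fitted for IC50.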

[2] = Table 1, cKIT autophosphorylation, compounds 45 min
[3] = Table 2, corresponding triazole derivatives

SMILES | pIC50 (c-Kit(V654A); Table 1, 200 μM ATP) | pIC50 [1, 2] | pIC50 (c-Kit(V654A); [3]) | pIC50 [1, 3]
COCCOc1cc2[nH]nc(-c3cc(-c4ccc(C(=O)NC5CN(C)C5)cc4)no3)c2cc1F [A73, 4-{5-[5-fluoro-6-(2-methoxyethoxy)-1H-indazol-3-yl]-1,2-oxazol-3-yl}-N-(1-methylazetidin-3-yl)benzamide] | 8.40 | 6.37 | – | –
COCCOc1cc2[nH]nc(-c3cn(-c4ccc(N5CCN(C)CC5)cc4)nn3)c2cc1F [reference compound] | – | – | 7.82 | 6.00
COCCOc1cc2[nH]nc(-c3cc(-c4ccc(C(=O)N5CCN(C6COC6)CC5)nc4)no3)c2cc1F [A68, (5-{5-[5-fluoro-6-(2-methoxy-ethoxy)-1H-indazol-3-yl]-isoxazol-3-yl}-pyridin-2-yl)-(4-oxetan-3-yl-piperazin-1-yl)-methanone] | 7.80 | 6.06 | – | –
COCCOc1cc2[nH]nc(-c3cc(-c4ccc(N5CCOCC5)nc4)no3)c2cc1F [A141, 5-fluoro-6-(2-methoxyethoxy)-3-{3-[6-(morpholin-4-yl)pyridin-3-yl]-1,2-oxazol-5-yl}-1H-indazole] | 8.11 | 6.66 | – | –
COCCOc1cc2[nH]nc(-c3cc(-c4ccc(OCCN5CCN(C)CC5)cc4)no3)c2cc1F [A133, 5-fluoro-6-(2-methoxyethoxy)-3-(3-{4-[2-(4-methylpiperazin-1-yl)ethoxy]phenyl}-1,2-oxazol-5-yl)-1H-indazole] | 9.00 | 6.89 | – | –
COCCOc1cc2[nH]nc(-c3cc(-c4ccc(C(=O)N5CC(c6nncn6CCOC)C5)cc4)no3)c2cc1F [A195, 5-fluoro-6-(2-methoxyethoxy)-3-[3-(4-{3-[4-(2-methoxyethyl)-4H-1,2,4-triazol-3-yl]azetidine-1-carbonyl}phenyl)-1,2-oxazol-5-yl]-1H-indazole] | 7.85 | 6.15 | – | –
COCCOc1cc2[nH]nc(-c3cc(-c4ccc(C(=O)N5CCN(C)CC5CO)cc4)no3)c2cc1F (stereo not shown) [A54, [1-(4-{5-[5-fluoro-6-(2-methoxyethoxy)-1H-indazol-3-yl]-1,2-oxazol-3-yl}benzoyl)-4-methylpiperazin-2-yl]methanol] | 9.14 | 6.89 | – | –
COCCOc1cc2[nH]nc(-c3cc(-c4ccc(C(=O)N5CC6(CCN(C7COC7)CC6)C5)cc4)no3)c2cc1F [A199, 2-(4-{5-[5-fluoro-6-(2-methoxyethoxy)-1H-indazol-3-yl]-1,2-oxazol-3-yl}benzoyl)-7-(oxetan-3-yl)-2,7-diazaspiro[3.5]nonane] | 9.12 | 7.55 | – | –
COCCOc1cc2[nH]nc(-c3cc(-c4ccc(C(=O)N5C[C@H]6COC[C@H]6C5)cc4)no3)c2cc1F [A202, 3-(3-{4-[(cis)-hexahydro-1H-furo[3,4-c]pyrrole-5-carbonyl]phenyl}-1,2-oxazol-5-yl)-5-fluoro-6-(2-methoxyethoxy)-1H-indazole] | 8.96 | 7.72 | – | –
COCCOc1cc2[nH]nc(-c3cc(-c4ccc(C(=O)N5CC(N6CCOCC6)C5)cc4)no3)c2cc1F [A53, 5-fluoro-6-(2-methoxyethoxy)-3-(3-{4-[3-(morpholin-4-yl)azetidine-1-carbonyl]phenyl}-1,2-oxazol-5-yl)-1H-indazole] | 8.85 | 7.82 | – | –
COCCOc1cc2[nH]nc(-c3cc(-c4ccc(N5CC(N6CCOCC6)C5)nc4)no3)c2cc1F [A145, 5-fluoro-6-(2-methoxyethoxy)-3-(3-{6-[3-(morpholin-4-yl)azetidin-1-yl]pyridin-3-yl}-1,2-oxazol-5-yl)-1H-indazole] | 8.32 | 5.96 | – | –
COCCOc1cc2[nH]nc(-c3cc(-c4ccc(C(=O)N5CC(F)C5)cc4)no3)c2cc1F [A26, 5-fluoro-3-{3-[4-(3-fluoroazetidine-1-carbonyl)phenyl]-1,2-oxazol-5-yl}-6-(2-methoxyethoxy)-1H-indazole] | 8.68 | 7.35 | – | –
COCCOc1cc2[nH]nc(-c3cc(-c4ccc(C(=O)N5CCC[C@@H]5CNS(C)(=O)=O)cc4)no3)c2cc1F [A94, N-{[(2R)-1-(4-{5-[5-fluoro-6-(2-methoxyethoxy)-1H-indazol-3-yl]-1,2-oxazol-3-yl}benzoyl)pyrrolidin-2-yl]methyl}methanesulfonamide] | 9.24 | 7.00 | – | –
COCCOc1cc2[nH]nc(-c3cc(-c4ccc(C(=O)N5CCC6(CC5)COC6)cc4)no3)c2cc1F [A60, 7-(4-{5-[5-fluoro-6-(2-methoxyethoxy)-1H-indazol-3-yl]-1,2-oxazol-3-yl}benzoyl)-2-oxa-7-azaspiro[3.5]nonane] | 9.36 | 7.55 | – | –
COCCOc1cc2[nH]nc(-c3cc(-c4ccc(C(=O)N5CCN(C6COC6)C[C@H]5C)cc4)no3)c2cc1F [A190, 5-fluoro-6-(2-methoxyethoxy)-3-(3-{4-[(2R)-2-methyl-4-(oxetan-3-yl)piperazine-1-carbonyl]phenyl}-1,2-oxazol-5-yl)-1H-indazole] | 8.80 | 7.26 | – | –
COCCOc1cc2[nH]nc(-c3cc(-c4ccc(C(=O)N5CC[C@@H](F)C5)cc4)no3)c2cc1F [A27, 5-fluoro-3-(3-{4-[(3R)-3-fluoropyrrolidine-1-carbonyl]phenyl}-1,2-oxazol-5-yl)-6-(2-methoxyethoxy)-1H-indazole] | 8.92 | 7.24 | – | –
COCCOc1cc2[nH]nc(-c3cc(-c4ccc(C(=O)N5CCN(C6COC6)CC5)cc4)no3)c2cc1Cl [A194, (4-{5-[5-chloro-6-(2-methoxy-ethoxy)-1H-indazol-3-yl]-isoxazol-3-yl}-phenyl)-(4-oxetan-3-yl-piperazin-1-yl)-methanone] | 9.11 | 7.36 | – | –
COCCOc1cc2[nH]nc(-c3cc(-c4ccc(C(=O)N5Cc6cn[nH]c6C5)cc4)no3)c2cc1F [A208, 5-fluoro-6-(2-methoxyethoxy)-3-[3-(4-{1H,4H,5H,6H-pyrrolo[3,4-c]pyrazole-5-carbonyl}phenyl)-1,2-oxazol-5-yl]-1H-indazole] | 9.13 | 7.12 | – | –
COCCOc1cc2[nH]nc(-c3cc(-c4ccc(C(=O)N5CC(N6CCOC[C@H]6C)C5)cc4)no3)c2cc1F [A201, 5-fluoro-6-(2-methoxyethoxy)-3-[3-(4-{3-[(3R)-3-methylmorpholin-4-yl]azetidine-1-carbonyl}phenyl)-1,2-oxazol-5-yl]-1H-indazole] | 8.70 | 7.51 | – | –
COCCOc1cc2[nH]nc(-c3cc(-c4ccc(S(C)(=O)=O)cc4)no3)c2cc1Cl [A15, 5-chloro-3-[3-(4-methanesulfonylphenyl)-1,2-oxazol-5-yl]-6-(2-methoxyethoxy)-1H-indazole] | 8.24 | 6.62 | – | –
COCCOc1cc2[nH]nc(-c3cc(-c4ccc(C(=O)N5CCN(CC6CC6)CC5)cc4)no3)c2cc1F [A179, 3-(3-{4-[4-(cyclopropylmethyl)piperazine-1-carbonyl]phenyl}-1,2-oxazol-5-yl)-5-fluoro-6-(2-methoxyethoxy)-1H-indazole] | 9.23 | 7.07 | – | –
COCCOc1cc2[nH]nc(-c3cc(-c4nc(C(=O)N(C)C)cs4)no3)c2cc1F [A93, 2-{5-[5-fluoro-6-(2-methoxyethoxy)-1H-indazol-3-yl]-1,2-oxazol-3-yl}-N,N-dimethyl-1,3-thiazole-4-carboxamide] | 7.28 | 6.41 | – | –
COCCOc1cc2[nH]nc(-c3cc(-c4ccc(C(=O)N5CC(C#N)C5)cc4)no3)c2cc1F [A28, 1-(4-{5-[5-fluoro-6-(2-methoxyethoxy)-1H-indazol-3-yl]-1,2-oxazol-3-yl}benzoyl)azetidine-3-carbonitrile] | 8.70 | 7.41 | – | –
COCCOc1cc2[nH]nc(-c3cc(-c4cnn(C)c4)no3)c2cc1F [A137, 5-fluoro-6-(2-methoxy-ethoxy)-3-[3-(1-methyl-1H-pyrazol-4-yl)-isoxazol-5-yl]-1H-indazole] | 8.12 | 6.74 | – | –
COCCOc1cc2[nH]nc(-c3cc(-c4ccc(N5CCN(C)CC5)cc4)no3)c2cc1F [A37, 5-fluoro-6-(2-methoxyethoxy)-3-{3-[4-(4-methylpiperazin-1-yl)phenyl]-1,2-oxazol-5-yl}-1H-indazole] | 8.70 | 7.10 | – | –
O=C(c1ccc(-c2cc(-c3n[nH]c4cc(OCCO)c(F)cc34)on2)cc1)N1CC(N2CCOCC2)C1 [A209, 2-{[5-fluoro-3-(3-{4-[3-(morpholin-4-yl)azetidine-1-carbonyl]phenyl}-1,2-oxazol-5-yl)-1H-indazol-6-yl]oxy}ethan-1-ol] | 9.07 | 6.92 | – | –
COCCOc1cc2[nH]nc(-c3cc(-c4ccc(C(=O)N5CCN(C)C[C@@H]5C)cc4)on3)c2cc1Cl [A10, 5-chloro-3-(5-{4-[(2S)-2,4-dimethylpiperazine-1-carbonyl]phenyl}-1,2-oxazol-3-yl)-6-(2-methoxyethoxy)-1H-indazole] | 8.80 | 6.74 | – | –
COCCOc1cc2[nH]nc(-c3cc(-c4ccc(C(=O)N5C[C@H]6CNC[C@H]6C5)cc4)no3)c2cc1F [A223, 3-(3-{4-[(cis)-octahydropyrrolo[3,4-c]pyrrole-2-carbonyl]phenyl}-1,2-oxazol-5-yl)-5-fluoro-6-(2-methoxyethoxy)-1H-indazole] | 8.96 | 6.42 | – | –
COCCOc1cc2[nH]nc(-c3cc(-c4ccc(C(=O)N5CCN(C6COC6)C[C@@H]5C)cc4)no3)c2cc1F [A191, 5-fluoro-6-(2-methoxyethoxy)-3-(3-{4-[(2S)-2-methyl-4-(oxetan-3-yl)piperazine-1-carbonyl]phenyl}-1,2-oxazol-5-yl)-1H-indazole] | 8.74 | 7.24 | – | –
